Laboratory results published in article PMC4890880 (ACS infectious diseases, 2016).
Like-named read-outs stand apart in the source and are kept apart here.

Key:
[1] = test system: HepG2-A16-CD81EGFP cells; details: for IC50: read-out: Tox_IC50, HepG2 cytotoxicity
[2] = test system: Plasmodium berghei (Pb-Luc) exoerythrocytic-stage parasites; details: for IC50: read-out: PbLuc_IC50
[3] = sheet 2nd round, maximal inhibition in dose response
[4] = first series, fraction of control
[5] = second series, fraction of control
[6] = 2nd round, maximal inhibition in dose series
[7] = first series of columns, fraction of control
[8] = second series of columns (replicate), fraction of control

For `C[C@H](CO)N1C[C@H](C)[C@@H](CN(C)C(=O)Nc2ccc(C(F)(F)F)cc2)Oc2c(NC(=O)c3ccc(-c4nccs4)cc3)cccc2C1=O` [BRD-K70940716-001-01-0], the IC50 ([1]; sheet 2nd round) was greater than 10 µM, the “Tox_max_inhibition (%)” value [1, 3] was 7% and the “normalized signal at concentration 10” value ([2]; first series of dose-response columns, fraction of control) was 1.176. The “normalized signal at concentration 0.000508053” value [2, 4] was 0.7879, the “normalized signal at concentration 0.00152416” value [2, 4] was 0.8471 and the “normalized signal at concentration 0.00457247” value [2, 4] was 0.871. For the same compound, the “normalized signal at concentration 0.0137174” value [2, 4] was 0.8913, the “normalized signal at concentration 0.0411523” value [2, 4] was 0.831 and the “normalized signal at concentration 0.123457” value [2, 4] was 0.9514. For the same compound, the “normalized signal at concentration 0.37037” value [2, 4] was 0.8506, the “normalized signal at concentration 1.11111” value [2, 4] was 0.9296 and the “normalized signal at concentration 3.33333” value [2, 4] was 1.136. For the same compound, the IC50 ([2]; sheet 2nd round, Broad compounds, dose response) was greater than 10 µM, the “normalized signal at concentration 10” value ([2]; second series of dose-response columns, fraction of control) was 1.096 and the “normalized signal at concentration 0.000508053” value [2, 5] was 1.058. The “normalized signal at concentration 0.00152416” value [2, 5] was 0.9924, the “normalized signal at concentration 0.00457247” value [2, 5] was 0.8277 and the “normalized signal at concentration 0.0137174” value [2, 5] was 1.075. For the same compound, the “normalized signal at concentration 0.0411523” value [2, 5] was 1.139, the “normalized signal at concentration 0.123457” value [2, 5] was 0.9792 and the “normalized signal at concentration 0.37037” value [2, 5] was 1.201. For the same compound, the “normalized signal at concentration 1.11111” value [2, 5] was 1.005, the “normalized signal at concentration 3.33333” value [2, 5] was 1.1649 and the “PbLuc_max_inhibition (%)” value [2, 3] was 21%.

`O=C(Cc1ccccn1)N1CC2(C1)[C@H](c1ccccc1)[C@H](CO)N2C(=O)c1ccncc1` [BRD-K71274172-001-01-0] was tested, and the “Tox_max_inhibition (%)” value [1, 6] was 8%, the IC50 ([1]; 2nd round, unit inferred) was greater than 10 µM and the “PbLuc_max_inhibition (%)” value [2, 6] was 33%. The “normalized signal at 0.000508053 (first series)” value ([2]; concentration 0.000508053, first replicate series, fraction of control) was 0.9199, the “normalized signal at 0.000508053 (second series)” value ([2]; concentration 0.000508053, second replicate series, fraction of control) was 0.7398 and the “normalized signal at 0.00152416 (first series)” value ([2]; concentration 0.00152416, first replicate series, fraction of control) was 1.024. The “normalized signal at 0.00152416 (second series)” value ([2]; concentration 0.00152416, second replicate series, fraction of control) was 0.9453, the “normalized signal at 0.00457247 (first series)” value ([2]; concentration 0.00457247, first replicate series, fraction of control) was 1.112 and the “normalized signal at 0.00457247 (second series)” value ([2]; concentration 0.00457247, second replicate series, fraction of control) was 0.9743. For the same compound, the “normalized signal at 0.0137174 (first series)” value ([2]; concentration 0.0137174, first replicate series, fraction of control) was 0.9082, the “normalized signal at 0.0137174 (second series)” value ([2]; concentration 0.0137174, second replicate series, fraction of control) was 0.6716 and the “normalized signal at 0.0411523 (first series)” value ([2]; concentration 0.0411523, first replicate series, fraction of control) was 1.078. For the same compound, the “normalized signal at 0.0411523 (second series)” value ([2]; concentration 0.0411523, second replicate series, fraction of control) was 0.9171, the “normalized signal at 0.123457 (first series)” value ([2]; concentration 0.123457, first replicate series, fraction of control) was 1.09 and the “normalized signal at 0.123457 (second series)” value ([2]; concentration 0.123457, second replicate series, fraction of control) was 1.008. The “normalized signal at 0.37037 (first series)” value ([2]; concentration 0.37037, first replicate series, fraction of control) was 0.9519, the “normalized signal at 0.37037 (second series)” value ([2]; concentration 0.37037, second replicate series, fraction of control) was 0.8993 and the “normalized signal at 1.11111 (first series)” value ([2]; concentration 1.11111, first replicate series, fraction of control) was 1.039. For the same compound, the “normalized signal at 1.11111 (second series)” value ([2]; concentration 1.11111, second replicate series, fraction of control) was 0.6979, the “normalized signal at 3.33333 (first series)” value ([2]; concentration 3.33333, first replicate series, fraction of control) was 0.9642 and the “normalized signal at 3.33333 (second series)” value ([2]; concentration 3.33333, second replicate series, fraction of control) was 0.9744. The “normalized signal at 10 (first series)” value ([2]; concentration 10, first replicate series, fraction of control) was 1.127, the “normalized signal at 10 (second series)” value ([2]; concentration 10, second replicate series, fraction of control) was 0.8663 and the IC50 ([2]; 2nd round, Broad DOS compounds, unit not printed (dose series head 10 to 0.000508053)) was greater than 10 µM.

`Cc1noc(C)c1S(=O)(=O)N(C)C[C@H]1OCc2cn(nn2)CCCC(=O)N([C@@H](C)CO)C[C@@H]1C` [BRD-K72210630-001-02-7] was tested, and the IC50 ([1]; sheet 2nd round) was greater than 10 µM, the “Tox_max_inhibition (%)” value [1, 3] was 5% and the “normalized signal at concentration 0.000508053” value [2, 7] was 0.823. For the same compound, the “normalized signal at concentration 0.00152416” value [2, 7] was 0.7982, the “normalized signal at concentration 0.00457247” value [2, 7] was 0.9501 and the “normalized signal at concentration 0.0137174” value [2, 7] was 0.8214. For the same compound, the “normalized signal at concentration 0.0411523” value [2, 7] was 0.9732, the “normalized signal at concentration 0.123457” value [2, 7] was 0.8751 and the “normalized signal at concentration 0.37037” value [2, 7] was 1.086. For the same compound, the “normalized signal at concentration 1.11111” value [2, 7] was 0.9189, the “normalized signal at concentration 3.33333” value [2, 7] was 0.9135 and the “normalized signal at concentration 10” value [2, 7] was 1.047. For the same compound, the IC50 ([2]; sheet 2nd round, Pb-Luc exoerythrocytic stage, 10-point dose response, top concentration 10) was greater than 10 µM, the “normalized signal at concentration 0.000508053” value [2, 8] was 1.029 and the “normalized signal at concentration 0.00152416” value [2, 8] was 0.9027. For the same compound, the “normalized signal at concentration 0.00457247” value [2, 8] was 0.8403, the “normalized signal at concentration 0.0137174” value [2, 8] was 1.03 and the “normalized signal at concentration 0.0411523” value [2, 8] was 0.8593. The “normalized signal at concentration 0.123457” value [2, 8] was 1, the “normalized signal at concentration 0.37037” value [2, 8] was 0.7692 and the “normalized signal at concentration 1.11111” value [2, 8] was 0.8393. The “normalized signal at concentration 3.33333” value [2, 8] was 0.8793, the “normalized signal at concentration 10” value [2, 8] was 0.8029 and the “PbLuc_max_inhibition (%)” value [2, 3] was 23%.
